Data on 23 compounds can be found in patent US12071424B2, “IRE1 small molecule inhibitors” (Cornell University, priority 2017, dated 2024).

Some results are limits rather than exact numbers.

The target of the first test is T1, IRE1a (Homo sapiens, UniProt O75460).
T1 construct: purchased SignalChem
T1 sequence (O75460 19-977): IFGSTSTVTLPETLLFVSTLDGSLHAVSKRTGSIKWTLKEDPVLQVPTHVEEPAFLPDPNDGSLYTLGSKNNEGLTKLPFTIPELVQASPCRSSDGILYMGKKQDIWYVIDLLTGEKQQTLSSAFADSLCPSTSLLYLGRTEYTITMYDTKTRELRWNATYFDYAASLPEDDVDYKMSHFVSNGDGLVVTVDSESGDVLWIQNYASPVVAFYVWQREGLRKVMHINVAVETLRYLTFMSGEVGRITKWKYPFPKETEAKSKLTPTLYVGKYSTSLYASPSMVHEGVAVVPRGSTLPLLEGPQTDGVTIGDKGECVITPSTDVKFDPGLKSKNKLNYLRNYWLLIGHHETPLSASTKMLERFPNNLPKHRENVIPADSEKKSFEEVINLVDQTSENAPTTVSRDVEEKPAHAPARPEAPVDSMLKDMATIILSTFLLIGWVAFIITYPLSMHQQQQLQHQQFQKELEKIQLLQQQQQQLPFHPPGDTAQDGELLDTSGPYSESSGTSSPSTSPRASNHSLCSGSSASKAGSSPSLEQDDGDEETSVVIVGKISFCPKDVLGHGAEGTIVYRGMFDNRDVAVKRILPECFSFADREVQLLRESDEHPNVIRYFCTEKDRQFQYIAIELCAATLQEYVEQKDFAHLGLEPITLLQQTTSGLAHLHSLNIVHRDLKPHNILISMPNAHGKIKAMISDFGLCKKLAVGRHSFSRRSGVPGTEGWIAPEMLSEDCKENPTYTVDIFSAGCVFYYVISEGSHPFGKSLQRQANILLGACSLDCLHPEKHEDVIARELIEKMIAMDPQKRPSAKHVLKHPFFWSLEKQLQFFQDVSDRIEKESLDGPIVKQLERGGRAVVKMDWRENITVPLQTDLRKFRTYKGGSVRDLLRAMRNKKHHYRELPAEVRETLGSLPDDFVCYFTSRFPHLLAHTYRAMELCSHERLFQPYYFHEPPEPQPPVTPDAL
In words: In vitro FRET assay (IRE1a cleavage of XBP1 RNA probe). The format is biochemical. As to conditions: 2 nM SignalChem IRE1a, tested as Formic Acid Salt (37: HCl Salt). As to the method:
In vitro FRET assay was performed to evaluate the ability of select compounds to inhibit IRE1, the results of which are summarized in Table 3. To perform the in vitro FRET assay, 1× complete assay buffer (CAB: […], 50 mM sodium citrate pH 7.15, 1 mM magnesium acetate, 0.02% tween 20) was used to SignalChem IRE1a protein to a final concentration of 2 nM. Selected compounds were serially diluted with DMSO in a non-binding black 384-well plate for a total of 15 ul in each well. 2 ul of the serially diluted compound or DMSO control were then added to new wells containing 98 ul of 1× CAB, for a total volume of 100 ul, 10 ul of which were then transferred to wells of a new plate. 5 ul of the diluted IRE1a was then added to each well. 5 ul of a […] XBP1 RNA probe was then added to each well. Fluorescence was then read over 30 minutes in kinetic mode (485/515 nm).
Two RNA probes were used, XBP1 wildtype (SEQ ID NO: 2) which is able to be spliced by active IRE1a or XBP1 mutant (SEQ ID NO: 3) which is unable to be spliced. Each probe contained a 5′ 6-FAM modification and a 3′ IOWA black FQ modification. […]
A word on the IC50: it is the midpoint of a concentration-inhibition curve. As to `Cc1cc(N(C)S(=O)(=O)c2ccccc2Cl)ccc1-c1cc(O)c2nc(N[C@H]3CC[C@H](N)CC3)ncc2c1` [Compound 30, N-(4-(2-(((1r,4r)-4-aminocyclohexyl)amino)-8-hydroxyquinazolin-6-yl)-3-methylphenyl)-2-chloro-N-methylbenzene-sulfonamide], the IC50 lay in the range of 50 to 100 nM.
Still for that read-out and setting: then `CCc1cc(-c2ccc(N(C)S(=O)(=O)c3ccccc3Cl)cc2C)cc2cnc(N[C@H]3CC[C@H](N)CC3)nc12` [Compound 31, N-(4-(2-(((1r,4r)-4-aminocyclohexyl)amino)-8-ethylquinazolin-6-yl)-3-methylphenyl)-2-chloro-N-methylbenzene-sulfonamide], with 100 to 10000 nM; and `COc1cc(-c2ccc(NS(=O)(=O)c3ccccc3Cl)cc2C)cc2cnc(N[C@H]3CC[C@H](N)CC3)nc12` [Compound 36, N-(4-(2-(((1r,4r)-4-aminocyclohexyl)amino)-8-methoxyquinazolin-6-yl)-3-methylphenyl)-2-chlorobenzene-sulfonamide], with not above 5 nM.
For `CCc1cc(-c2sc(NS(=O)(=O)c3ccccc3Cl)nc2C)cc2cnc(N[C@H]3CC[C@H](N)CC3)nc12` [Compound 38], the IC50 is not above 5 nM.
`CCc1cc(-c2cnc(NS(=O)(=O)c3ccccc3Cl)nc2)cc2cnc(N[C@H]3CC[C@H](N)CC3)nc12` [Compound 39, N-(5-(2-(((1r,4r)-4-aminocyclohexyl)amino)-8-ethylquinazolin-6-yl)pyrimidin-2-yl)-2-chlorobenzene-sulfonamide]: the IC50 was not above 5 nM.
The same measure, in the same setting: with `CC(C)c1cc(-c2cc(NS(=O)(=O)c3ccccc3Cl)nn2C)cc2cnc(N[C@H]3CC[C@H](N)CC3)nc12` [Compound 40, N-(5-(2-(((1r,4r) 4-aminocyclohexyl)amino)-8-isopropylquiazolin-6-yl)-1-methyl-1H-pyrazol-3-yl)-2-chlorobenzene-sulfonamide] the figure was not above 5 nM.
As for `CCc1cc(-c2cnc(NS(=O)(=O)c3ccccc3Cl)s2)cc2cnc(N[C@H]3CC[C@H](N)CC3)nc12` [Compound 41], the IC50 was not above 5 nM.
Consider `CCc1cc(-c2cc(F)c(NS(=O)(=O)c3ccccc3Cl)cc2OC)cc2cnc(N[C@H]3CC[C@H](N)CC3)nc12` [Compound 42, N-(4-(2-(((1r,4r)-4-aminocyclohexyl)amino)-8-ethylquinazolin-6-yl)-2-fluoro-5-methoxyphenyl)-2-chlorobenzene-sulfonamide], for which the IC50 is not above 5 nM.
On to `CCc1cc(-n2cc(NS(=O)(=O)c3ccccc3Cl)cn2)cc2cnc(N[C@H]3CC[C@H](N)CC3)nc12` [Compound 43, N-(1-(2-(((1r,4r)-4-aminocyclohexyl)amino)-8-ethylquinazolin-6-yl)-1H-pyrazol-4-yl)-2-chlorobenzene-sulfonamide], for which the IC50 is not above 5 nM.
For `COc1cc(-c2cc(NS(=O)(=O)c3ccccc3Cl)nn2C)cc2cnc(N[C@H]3CC[C@H](N)CC3)nc12` [Compound 45, N-(5-(2-(((1r,4r)-4-aminocyclohexyl)amino)-8-methoxyquinazolin-6-yl)-1-methyl-1H-pyrazol-3-yl)-2-chlorobenzene-sulfonamide], the half-maximal inhibitory concentration (IC50) lay in the range of 50 to 100 nM.
Turning to `N[C@H]1CC[C@H](Nc2ncc3cc(-c4ccc(NS(=O)(=O)c5ccccc5Cl)nn4)ccc3n2)CC1` [Compound 49, N-(6-(2-(((1r,4r)-4-aminocyclohexyl)amino)quinazolin-6-yl)pyridazin-3-yl)-2-chlorobenzene-sulfonamide], the IC50 is not above 5 nM.
With `N[C@H]1CC[C@H](Nc2ncc3cc(-c4ccc(NS(=O)(=O)c5ccccc5Cl)c(F)c4)ccc3n2)CC1` [Compound 50, N-(4-(2-(((1r,4r)-4-aminocyclohexyl)amino)quinazolin-6-yl)-2-fluorophenyl)-2-chlorobenzene-sulfonamide], the IC50 was not above 5 nM.
Turning to `CCc1cc(-c2cc(F)c(NS(=O)(=O)c3ccccc3Cl)c(F)c2)cc2cnc(N[C@H]3CC[C@H](N)CC3)nc12` [Compound 63, N-(4-(2-(((1r,4r)-4-aminocyclohexyl)amino)-8-ethylquinazolin-6-yl)-2,6-difluorophenyl)-2-chlorobenzene-sulfonamide], the IC50 was not above 5 nM.
For `CCc1cc(NS(=O)(=O)c2ccccc2Cl)nnc1-c1cc(CC)c2nc(N[C@H]3CC[C@H](N)CC3)ncc2c1` [Compound 96, N-(6-(2-(((1r,4r)-4-aminocyclohexyl)amino)-8-ethylquinazolin-6-yl)-5-ethylpyridazin-3-yl)-2-chlorobenzenesulfonamide], the 50% inhibitory concentration (IC50) is not above 5 nM.
`CCc1cc(-c2ccc(NS(=O)(=O)c3ccccc3Cl)nc2C)cc2cnc(N[C@H]3CC[C@H](N(C)CC(F)(F)F)CC3)nc12` [Compound 126, 2-chloro-N-(5-(8-ethyl-2-(((1r,4r)-4-(methyl(2,2,2-trifluoroethyl)amino)cyclohexyl)amino)quinazolin-6-yl)-6-methylpyridin-2-yl)benzenesulfonamide]: the IC50 lay in the range of 50 to 100 nM.
As to `COc1nc(NS(=O)(=O)c2ccccc2Cl)ccc1-c1cc(C)c2nc(N[C@H]3CC[C@@H](N(C)C)CC3)ncc2c1` [Compound 139, 2-chloro-N-(5-(2-(((1s,4s)-4-(dimethylamino)cyclohexyl)amino)-8-methylquinazolin-6-yl)-6-methoxypyridin-2-yl)benzenesulfonamide], the IC50 lay in the range of 5 to 50 nM.
As for `CCc1cc(-c2cc(F)c(NS(=O)(=O)c3ccccc3Cl)nc2OC)cc2cnc(N[C@H]3CC[C@@H](N(C)C)CC3)nc12` [Compound 142, 2-chloro-N-(5-(2-(((1s,4s)-4-(dimethylamino)cyclohexyl)amino)-8-ethylquinazolin-6-yl)-3-fluoro-6-methoxypyridin-2-yl)benzenesulfonamide], the IC50 was in the range of 5 to 50 nM.
Turning to `CCc1cc(-c2ccc(NS(=O)(=O)c3ccccc3Cl)nc2OC)cc2cnc(N[C@H]3CC[C@@](C)(N(C)C)CC3)nc12` [Compound 143, 2-chloro-N-(5-(2-(((1s,4s)-4-(dimethylamino)-4-methylcyclohexyl)amino)-8-ethylquinazolin-6-yl)-6-methoxypyridin-2-yl)benzenesulfonamide], the IC50 was 5 to 50 nM.
As for `CCc1cc(-c2cc(F)c(NS(=O)(=O)c3ccccc3Cl)nc2OC)cc2cnc(N[C@H]3CC[C@@](C)(N(C)C)CC3)nc12` [Compound 144, 2-chloro-N-(5-(2-(((1s,4s)-4-(dimethylamino)-4-methylcyclohexyl)amino)-8-ethylquinazolin-6-yl)-3-fluoro-6-methoxypyridin-2-yl)benzenesulfonamide], the IC50 is 50 to 100 nM.
As for `COc1nc(NS(=O)(=O)c2ccccc2Cl)c(F)cc1-c1cc(C)c2nc(N[C@H]3CC[C@@H](N(C)C)CC3)ncc2c1` [Compound 147, 2-chloro-N-(5-(2-(((1s,4s)-4-(dimethylamino)cyclohexyl)amino)-8-methylquinazolin-6-yl)-3-fluoro-6-methoxypyridin-2-yl)benzenesulfonamide], the IC50 fell in the range of 5 to 50 nM.
On the same count and under the same terms, with `Cc1nc(NS(=O)(=O)c2ccccc2Cl)c(F)cc1-c1cc(F)c2nc(N[C@H]3CC[C@H](N(C)C)CC3)ncc2c1` [Compound 156, 2-chloro-N-(5-(2-(((1r,4r)-4-(dimethylamino)cyclohexyl)amino)-8-fluoroquinazolin-6-yl)-3-fluoro-6-methylpyridin-2-yl)benzenesulfonamide] the figure was 100 to 10000 nM.

The next test relates to IRE1a. Description: IRE1a Endoribonuclease Nanoluciferase Assay (XBP1 luciferase reporter in 293T cells). The format is cell-based, human. As to conditions: Homo sapiens, HEK-293T, ER stressor, tested as Formic Acid Salt (37: HCl Salt). As to the method: Compounds disclosed herein assessed for disruption of IRE1 signaling using a IRE1a Endoribonuclease Nanoluciferase Assay. Briefly, 25×10^5 293T cells were seeded in a 10 cm^2 tissue culture plate. About 24 hours later, the cells were transfected with Effectene. In a 15 mL tube, the following was added: 2 ug XBP1 luciferase reporter plasmid (PGK-Luc2-P2A-XBP1u-Nanoluciferase-Pest); 300 ul EC buffer; and 16 ul Enhancer, followed by incubation at room temp for 5 minutes. Next, 60 ul Effectene (Qiagen 301427) was added, followed by incubation at room temperature for 10 minutes. 2.6 mL cDMEM media was added. Old media was aspirated from the cells, followed by addition of 7 mL fresh media. Full transfection mixture was added dropwise to cells. Cells were incubated for 6 hours, followed by trypsinization, centrifugation and resuspension in 11 mL fresh cDMEM media. 100 uL of cells were plated per a well in a 96 well plate. A day later, ER stressors of choice +/−inhibitors were added. To harvest, media was aspirated from cells completely, then 50 uL 1× passive lysis buffer (Promega: E1941) was added per well and put on shaker (300 rpm) for 30 minutes at room temperature. Cells were centrifuged, and 15 uL sample per well was added to a new, opaque white 384 well plate (Corning 3570). 15 uL OneGlo (nanoluciferase kit, Promega N1630) was added. Plates were spun down, placed on shaker (300 rpm) for 10 minutes. Plates were read on luminometer, 1000 ms integration time per well. 15 uL Stop an Glo (nanoluciferase kit) was added. Plates were spun down, placed on shaker (300 rpm) for 10 minutes. Plates were read on luminometer, 1000 ms second integration time per well. Recordings are provided below in Table 4.
A general note: In a reporter assay the amount or activity of a reporter protein is the signal.
By EC50 is commonly meant the concentration at which the effect is half-maximal. Take `CCc1cc(-c2ccc(NS(=O)(=O)c3ccccc3Cl)c(F)c2)cc2cnc(N[C@H]3CC[C@H](NC(=O)[C@@H](N)C(C)C)CC3)nc12` [Compound 58, (S)-2-amino-N-((1r,4S)-4-((6-(4-((2-chlorophenyl)sulfonamido)-3-fluorophenyl)-8-ethylquinazolin-2-yl)amino)cyclohexyl)-3-methylbutanamide]: the EC50 was not above 5 nM.
In the case of `CCc1cc(-c2ccc(NS(=O)(=O)c3ccccc3Cl)c(F)c2)cc2cnc(N[C@@H]3CC[C@H](N)[C@H](C)C3)nc12` [Compound 70, N-(4-(2-(((1R,3R,4S)-4-amino-3-methylcyclohexyl)amino)-8-ethylquinazolin-6-yl)-2-fluorophenyl)-2-chlorobenzene-sulfonamide], the EC50 was not above 5 nM.
